Experimental data from PMC6934184, “Selective DNA-PKcs inhibition extends the therapeutic index of localized radiotherapy and chemotherapy” (The Journal of Clinical Investigation, 2019).

Biological target: T1, CSNK1A1 (CK1 alpha 1) (Homo sapiens, UniProt P48729)
T1 construct: purchased Thermo Fisher Scientific (Life Technologies) SelectScreen
Assay: SelectScreen Z'LYTE
Type: biochemical
Procedure, shortened: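 Percent values come from Thermo SelectScreen profiling of NU5455, combining activity and binding assays. CSF1R was run in Z'LYTE format at Km app ATP, and CAMK1 in Adapta format with ATP listed at 10.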

T1 sequence (P48729 whole entry): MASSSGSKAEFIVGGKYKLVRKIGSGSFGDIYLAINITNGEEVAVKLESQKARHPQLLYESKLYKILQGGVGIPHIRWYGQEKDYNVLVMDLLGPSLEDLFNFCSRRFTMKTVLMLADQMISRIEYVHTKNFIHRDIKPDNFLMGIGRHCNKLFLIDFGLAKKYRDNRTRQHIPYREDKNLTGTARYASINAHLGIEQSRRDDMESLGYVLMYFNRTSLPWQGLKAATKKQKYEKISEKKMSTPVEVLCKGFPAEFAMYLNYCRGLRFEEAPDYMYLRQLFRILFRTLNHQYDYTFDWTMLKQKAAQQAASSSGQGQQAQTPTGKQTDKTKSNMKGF

## CN(C(=O)CN1CCOCC1)c1ccc2sc3c(-c4cccc5c(=O)cc(N6CC7CCC(C6)O7)oc45)cccc3c2c1 [NU5455]
  inhibition at 1 µM: 0.3%
